Data from article PMC8838847, “Design, Synthesis and Cytotoxicity of Thiazole-Based Stilbene Analogs as Novel DNA Topoisomerase IB Inhibitors” (Molecules, 2022).

How the values were obtained:
[1] = test system: human breast cancer (MCF-7) cells; test: MTT cytotoxicity assay, MCF-7; format: cell-based; conditions: Homo sapiens, MCF7, 72 h, five doses 0.01-100 µM
Protocol: (§1) The cytotoxicity of the desired compounds was assessed through MTT assay against two human cancer cell lines, human breast cancer (MCF-7) and colon cancer (HCT116), and one normal cell line, human embryonic kidney 293T (HEK293T). CPT and etoposide (VP-16) were used as positive controls. The compounds were incubated with cells for 72 h in a five-dose assay ranging from 0.01 to 100 µΜ. After the drug treatments, MTT solution was added to test the percentage growth of tumor cells.
(§2) The cells were cultured on RPMI 1640 Medium at 37 °C in a humidified atmosphere with 5% CO2. The cytotoxicities of the target compounds were evaluated through MTT assay against two human cancer cell lines (human breast cancer MCF-7 and human colon cancer HCT116). For the compound treatment experiments, the cancer cells were treated with the compounds (pre-dissolved in DMSO) via a five-dose assay ranging from 10^−8 to 10^−4 M. After incubation for 72 h at 37 °C, MTT solution (20 μL, 2.5 mg/mL) in PBS (PBS without MTT as the blank) was added to each well of the culture plate. After incubation for 4 h, the formazan crystal formed in the well was dissolved in 100 μL of DMSO for an optical density of 570 nm. The IC50 value was calculated using nonlinear regression analysis (GraphPad Prism). Every experiment was conducted three times, independently.

[2] = test system: human colon cancer (HCT116) cells; test: MTT cytotoxicity assay, HCT116; format: cell-based; conditions: Homo sapiens, HCT-116, 72 h, five doses 0.01-100 µM
Protocol: as §1, §2

calf thymus Top1 = molecular target: T1, calf thymus Top1 (Bos taurus, UniProt F1MN93); test: Top1-mediated DNA relaxation assay; format: biochemical; conditions: compounds at 50 µM; semi-quantitative, relative to CPT at 50 µM
T1 construct: 1 unit of calf thymus Top1; from tissue; host or cells: calf thymus
T1 sequence (F1MN93 1-767): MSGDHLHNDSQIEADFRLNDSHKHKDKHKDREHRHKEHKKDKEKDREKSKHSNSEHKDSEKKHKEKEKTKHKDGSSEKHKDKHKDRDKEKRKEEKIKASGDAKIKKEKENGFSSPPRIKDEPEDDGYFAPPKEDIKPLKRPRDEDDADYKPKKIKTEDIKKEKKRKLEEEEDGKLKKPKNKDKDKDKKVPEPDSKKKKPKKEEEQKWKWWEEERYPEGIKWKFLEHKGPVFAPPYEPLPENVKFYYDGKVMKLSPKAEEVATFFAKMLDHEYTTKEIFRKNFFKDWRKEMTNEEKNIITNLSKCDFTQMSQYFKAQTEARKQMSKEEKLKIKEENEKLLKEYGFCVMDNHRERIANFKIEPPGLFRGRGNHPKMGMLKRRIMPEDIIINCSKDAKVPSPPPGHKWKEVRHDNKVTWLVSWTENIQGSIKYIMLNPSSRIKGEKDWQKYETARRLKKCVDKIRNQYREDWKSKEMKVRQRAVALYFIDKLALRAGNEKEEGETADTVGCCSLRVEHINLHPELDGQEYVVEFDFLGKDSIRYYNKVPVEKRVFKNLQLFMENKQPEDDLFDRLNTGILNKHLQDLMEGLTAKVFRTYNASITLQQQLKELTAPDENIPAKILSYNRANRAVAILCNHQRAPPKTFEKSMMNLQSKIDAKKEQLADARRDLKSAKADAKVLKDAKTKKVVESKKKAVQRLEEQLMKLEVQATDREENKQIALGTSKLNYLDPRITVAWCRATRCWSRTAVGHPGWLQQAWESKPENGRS
Protocol: The synthesized compounds 6–37 were evaluated for Top1 inhibitory activity by measurement of the Top1-mediated DNA relaxation assay. The compounds were tested at 50 µΜ using CPT as positive control, and the results were semi-quantitatively expressed relative to CPT at 50 µΜ as follows: ++++, more than 80% activity; +++, between 40% and 79% activity; ++, between 10% and 39% activity; +, less than 10% activity. […] In phenyl A, the 4-position halogen (X) remarkably affected the inhibition against Top1. […] In phenyl B, the introduction of substituents at the 3-position was beneficial for the Top1 inhibition, and the derivatives presented good tolerance of the 3-substituents, since compounds 8 (++++) and 13 (+++) with electron-donating -Me or -OMe and also compound 19 (+++) with electron-withdrawing -Br had good inhibition against Top1. For substituents at the 4-position, the strong electron-withdrawing -CF3 (10, +++) and -F (15, +++) increased the Top1 inhibitory activity compared to compound 6 (R = H), while the weak electron-withdrawing -Cl (17, +) and the electron-donating -Me (9, +) and -OMe (14, +) decreased the activity, with the exception of tert-Bu (11, +++).
As previously mentioned, compound 8 had the best inhibition activity against Top1, and therefore was selected for further investigation. A semi-quantitative Top1-mediated relaxation assay of compound 8 was performed at concentrations of 0.2, 1, 5, 25 and 125 μM.
The compounds were tested for their Top1 inhibitory activity using a Top1-mediated relaxation assay. Briefly, the reaction mixture (20 μL) with 0.5 μg of supercoiled pBR322 DNA in relaxation buffer (10 mM Tris-HCl, pH 7.5, 50 mM KCl, 5 mM MgCl2, 15 μg/mL BSA, 40 μg/mL DTT) was incubated with 1 unit of calf thymus Top1 in the absence or in the presence of the compound for 30 min at 37 °C. Then, the reaction solution was added with 6 × loading buffer (4 μL) and was analyzed using a 0.8% agarose gel in TBE buffer at 4.6 V/cm for 1.5 h. Gel was stained with 1 × GelRed for 30 min and subsequently visualized with a UV transilluminator.

Row | SMILES | IC50 [1] | IC50 [2] | melting point | Relaxation Assay (Top1 inhibitory activity) (calf thymus Top1)
1 | Fc1ccc(-c2csc(/C=C/c3ccc(Cl)cc3Cl)n2)cc1 [Compound 20, (E)-2-(2,4-Dichlorostyryl)-4-(4-fluorophenyl)thiazole] | 72.4 ± 2.15 µM | 54.8 ± 0.73 µM | 131 to 133 °C | + (less than 10% activity)
2 | Cc1ccccc1/C=C/c1nc(-c2ccc(Cl)cc2)cs1 [Compound 21, (E)-4-(4-chlorophenyl)-2-(2-methylstyryl)thiazole] | 39.5 ± 1.06 µM | 41.7 ± 1.92 µM | 83 to 84 °C | + (less than 10% activity)
3 | Cc1cccc(/C=C/c2nc(-c3ccc(Cl)cc3)cs2)c1 [Compound 22, (E)-4-(4-chlorophenyl)-2-(3-methylstyryl)thiazole] | > 100 µM | > 100 µM | 133 to 134 °C | 
4 | COc1ccccc1/C=C/c1nc(-c2ccc(Cl)cc2)cs1 [Compound 24, (E)-4-(4-chlorophenyl)-2-(2-methoxystyryl)thiazole] | > 100 µM | 49.4 ± 3.49 µM | 93 to 95 °C | 
5 | Clc1ccc(-c2csc(/C=C/c3ccccc3Cl)n2)cc1 [Compound 25, (E)-4-(4-chlorophenyl)-2-(2-chlorostyryl)thiazole] | 48.5 ± 6.67 µM | 51 ± 3.7 µM | 109 to 110 °C | + (less than 10% activity)
6 | Cc1cccc(/C=C/c2nc(-c3ccc(Br)cc3)cs2)c1 [Compound 26, (E)-4-(4-bromophenyl)-2-(3-methylstyryl)thiazole] | 10.8 ± 2.42 µM |  | 174 to 176 °C | 
7 | FC(F)(F)c1ccc(/C=C/c2nc(-c3ccc(Br)cc3)cs2)cc1 [Compound 27, (E)-4-(4-bromophenyl)-2-(4-(trifluoromethyl)styryl)thiazole] | 24.3 ± 5.62 µM | 34.9 ± 5.66 µM | 102 to 103 °C | 
8 | CC(C)(C)c1ccc(/C=C/c2nc(-c3ccc(Br)cc3)cs2)cc1 [Compound 28, (E)-4-(4-bromophenyl)-2-(4-(tert-butyl)styryl)thiazole] |  |  | 89 to 90 °C | + (less than 10% activity)
9 | Fc1ccc(/C=C/c2nc(-c3ccc(Br)cc3)cs2)cc1 [Compound 29, (E)-4-(4-bromophenyl)-2-(4-fluorostyryl)thiazole] | > 100 µM | 63.2 ± 6.17 µM | 176 to 178 °C | 
10 | Oc1cccc(/C=C/c2nc(-c3ccc(Br)cc3)cs2)c1 [Compound 34, (E)-3-(2-(4-(4-bromophenyl)thiazol-2-yl)vinyl)phenol] | 22.8 ± 1.4 µM | 9.99 ± 0.19 µM |  | + (less than 10% activity)
11 | CC(C)=CCOc1cccc(/C=C/c2nc(-c3ccc(Br)cc3)cs2)c1 [Compound 36, (E)-4-(4-bromophenyl)-2-(3-((3-methylbut-2-en-1-yl)oxy)styryl)thiazole] | > 100 µM | > 100 µM | 122 to 123 °C | 
12 | COc1cc([C@@H]2c3cc4c(cc3[C@@H](O[C@@H]3O[C@@H]5CO[C@@H](C)O[C@H]5[C@H](O)[C@H]3O)[C@H]3COC(=O)[C@H]23)OCO4)cc(OC)c1O [vp-16, etoposide, reference compound] | 24.7 ± 3.12 µM | 18.9 ± 1.35 µM |  | 
